Data reported in patent US6727076B2 (priority 1995, dated 2004).
Structures can show the parent of a compound that is named as a salt.

Test system: E. coli MG1655
Type: cell-based

| Structure (SMILES) | suitability as phosphorus source (growth, purple color) | suitability as sulfur source (growth, purple color) |
| --- | --- | --- |
| O=C(CO)[C@@H](O)[C@H](O)[C@H](O)COP(=O)(O)O [Fructose-6-phosphate] | positive | – |
| N[C@@H](CS(=O)(=O)O)C(=O)O [L-cysteic acid] | – | positive |
| N[C@@H](CS(=O)O)C(=O)O [L-cysteine sulphinic acid] | – | positive |
| N[C@@H](CSCSC[C@H](N)C(=O)O)C(=O)O [L-djenkolic acid] | – | positive |
| CS(=O)(=O)CC[C@H](N)C(=O)O [L-methionine sulfone] | – | not suitable |
| C[S+]([O-])CC[C@H](N)C(=O)O (stereo partly drawn) [L-methionine sulfoxide] | – | positive |
| CC(=O)N[C@@H](CS)C(=O)O [N-acetyl cysteine] | – | not suitable |
| CC(=O)OC[C@H](N)C(=O)O [O-acetyle-serine with sodium sulfate, O-acetyl-serine] | – | positive |
| N[C@H](COP(=O)(O)O)C(=O)O [O-phospho-D-serine] | positive | – |
| N[C@H](Cc1ccc(OP(=O)(O)O)cc1)C(=O)O [O-phospho-D-tyrosine] | positive | – |
| N[C@@H](COP(=O)(O)O)C(=O)O [O-phospho-L-serine] | positive | – |
| C[C@@H](OP(=O)(O)O)[C@H](N)C(=O)O [O-phospho-L-threonine] | positive | – |
| N[C@@H](Cc1ccc(OP(=O)(O)O)cc1)C(=O)O [O-phospho-L-tyrosine] | positive | – |
| CSC[C@H](N)C(=O)O [S-methyl-L-cysteine] | – | weak positive |
| O=C[C@@H](O)[C@H](O)[C@H](O)COP(=O)(O)O [arabinose 5-phosphate] | positive | – |
| N[C@@H](CS)C(=O)NCC(=O)O [cys-gly] | – | positive |
| N[C@@H](CCSC[C@H](N)C(=O)O)C(=O)O [cystathionine] | – | positive |
| O=C(COP(=O)(O)O)[C@@H](O)[C@H](O)[C@H](O)CO [fructose 1-phosphate] | positive | – |
| N[C@H]1C(OP(=O)(O)O)O[C@H](CO)[C@@H](O)[C@@H]1O (stereo partly shown) [glucosamine 1-phosphate] | positive | – |
| N[C@H]1C(O)O[C@H](COP(=O)(O)O)[C@@H](O)[C@@H]1O (stereo partly shown) [glucosamine 6-phosphate] | positive | – |
| Nc1nc2c(ncn2[C@@H]2O[C@H](CO)[C@H]3OP(=O)(O)O[C@H]32)c(=O)[nH]1 [guanosine 2′:3′-cyclic monophosphate] | positive | – |
| Nc1nc2c(ncn2[C@@H]2O[C@H](CO)[C@@H](OP(=O)(O)O)[C@H]2O)c(=O)[nH]1 [guanosine 3′-monophosphate] | positive | – |
| Nc1nc2c(ncn2[C@@H]2O[C@@H]3COP(=O)(O)O[C@H]3[C@H]2O)c(=O)[nH]1 [guanosine 3′:5′-cyclic monophosphate] | not suitable | – |
| NCCS(=O)O [hypotaurine] | – | positive |
| O=P(O)(O)O[C@H]1[C@H](OP(=O)(O)O)[C@@H](OP(=O)(O)O)[C@H](OP(=O)(O)O)[C@@H](OP(=O)(O)O)[C@H]1OP(=O)(O)O [inositol hexaphosphate] | not suitable | – |
| O=S(=O)(O)CCO [isethionate] | – | positive |
| N[C@@H](CSC[C@H](N)C(=O)O)C(=O)O [lanthionine] | – | positive |
| O=P(O)(O)OC1O[C@H](CO)[C@@H](O)[C@H](O)[C@@H]1O (stereo partly shown) [mannose 1-phosphate] | positive | – |
